Test results reported in article PMC9783783 (Pharmaceutics, 2022).

Tests used:
[1] = human, oral; cited from earlier work
in vivo = settings: for AUC / clearance / CL renal / half-life / Vd / Cmax / bioavailability / Tmax: rat, in vivo; for clearance: CL; for CL renal: CLR; for half-life: Terminal half-life; for Vd: Vss; for bioavailability: F (absolute oral bioavailability), 20 mg/kg oral vs 10 mg/kg i.v.
Method: All surgical procedures were performed following anesthesia with 100 mg/kg ketamine according to a previously reported method. For the intravenous study, the carotid artery and jugular vein were cannulated for blood sampling and drug administration, respectively. For the oral study, rats were restrained from food overnight but were allowed to drink water ad libitum. Only the carotid artery was cannulated for the blood sampling.
A heparinized 0.9% NaCl-injectable solution (10 IU/mL) was immediately flushed into the carotid artery after collecting the blood samples to prevent blood clotting.
The volume of the combined urine was then measured, and two 100 μL aliquot samples were collected. At the same time, the rat abdomen was surgically opened, and the whole gastrointestinal tract was collected in a beaker containing 50 mL methanol and cut into small pieces. After even mixing, 50 µL of the supernatant was collected.
Pharmacokinetic parameters were estimated using the standard method by non-compartmental analysis (WinNonlin; Pharsight Corporation, Mountain View, CA, USA). AUC values were calculated using the trapezoidal rule–extrapolation method. The peak plasma concentration (Cmax) and time to reach Cmax (Tmax) were measured directly from the plasma concentration–time curves. […] The glomerular filtration rate was measured by calculating the CLCR, assuming that the kidney function was stable during the experimental period.

[2] = various pH buffers (pH 2–10) and gastric juice (pH 3.5), 24 h; cited from earlier work
[3] = rats, intraportal administration; cited from earlier work
[4] = rats (n = 3), 10 mg/kg i.v.; cited from earlier work
P-gp = settings: cited from earlier work
in vitro = settings: for fraction unbound at 24 h, 10 μg/mL: rat, plasma, pH 7.4, Plasma protein binding
Method: Rat plasma (1 mL) from each group was dialyzed against 1 mL of isotonic Sørensen phosphate buffer (pH 7.4) containing 3% dextran (“the buffer”) via a Spectra/Por 2 membrane (molecular weight cutoff: 12,000–14,000 Da; Spectrum Medical Industries, Los Angeles, CA, USA). […] The binding percentage (%) was calculated as follows:(1) Binding %=CP−CB/CP×100

[5] = Method: Enzyme kinetics in the hepatic and intestinal microsomes were determined according to a previously reported method. Microsomal protein concentrations in the liver and intestine were measured using bicinchoninic acid assay. […] The total volume was adjusted to 1 mL by adding 0.1 M phosphate-buffered solution (pH 7.4) to the system, and the samples were incubated for 15 min in a water-bath shaker at 37 °C at the rate of 50 oscillations per min. The reaction was completed by adding 2 volumes of methanol. Subsequently, two 50 μL aliquots of each reaction mixture were collected.
[6] = LC rats vs CON rats, 10 mg/kg i.v.
[7] = LC rats vs CON rats, 20 mg/kg oral
[8] = LC-ISN rats vs CON rats, 10 mg/kg i.v.
[9] = LC-ISN rats vs CON rats, 20 mg/kg oral
[10] = LC-ISN rats vs LC rats, 10 mg/kg i.v.
[11] = LC-ISN rats vs LC rats, 20 mg/kg oral
[12] = iv, 10 mg/kg, CON rats, 10 mg/kg i.v. 1 min infusion
[13] = iv, 10 mg/kg, LC rats, 10 mg/kg i.v. 1 min infusion
[14] = iv, 10 mg/kg, LC-ISN rats, 10 mg/kg i.v. 1 min infusion
[15] = iv, 10 mg/kg, CON rats, 10 mg/kg i.v.
[16] = iv, 10 mg/kg, LC rats, 10 mg/kg i.v.
[17] = iv, 10 mg/kg, LC-ISN rats, 10 mg/kg i.v.
[18] = po, 20 mg/kg, CON rats, 20 mg/kg oral
[19] = po, 20 mg/kg, LC rats, 20 mg/kg oral
[20] = po, 20 mg/kg, LC-ISN rats, 20 mg/kg oral
[21] = hepatic microsomes, LC rats vs CON rats

In the case of CC1CCN(C(=O)CC#N)CC1N(C)c1ncnc2[nH]ccc12 (stereo not drawn) [tofacitinib, 3-(4-methyl-3-(methyl(7H-pyrrolo[2,3-d]pyrimidin-4yl)amino)piperidin-1-yl)-3-oxopropanenitrile], the “Fraction excreted by the kidneys in unmetabolized form” value [1] is listed as 30%, the “Ae0–24 h (excreted in urine as unchanged for 24 h)” value (in vivo; CON rats, 10 mg/kg i.v.) is listed as 13.9 ± 2.28 % of dose and the CLNR (in vivo; CON rats, 10 mg/kg i.v.) is listed as 21.1 ± 4.57 mL/min/kg. The “GI24 h (remained in the gastrointestinal tract at 24 h)” value (in vivo; CON rats, 10 mg/kg i.v.) was 0.164 ± 0.102 % of dose, the “Ae0–24 h” value (in vivo; CON rats, 20 mg/kg oral) was 11.8 ± 4.08 % of dose and the GI24 h (in vivo; CON rats, 20 mg/kg oral) was 0.106 ± 0.101 % of dose. For the same compound, the “Greater Ae0–24 h” value (in vivo; [6]) was 189%, the “Increase in AUC” value (in vivo; [6]) was 158% and the “Increase in Vss” value (in vivo; [6]) was 86.0%. The Longer terminal half-life (in vivo; [6]) was 219%, the “Slower CL” value (in vivo; [6]) was 54.4% and the “Slower CLNR” value (in vivo; [6]) was 69.9%. For the same compound, the “Increase in AUC” value (in vivo; [7]) was 429%, the “Increase in Ae0–24 h” value (in vivo; [7]) was 203% and the “Increase in Cmax” value (in vivo; [7]) was 158%. For the same compound, the “Increase in F” value (in vivo; [7]) was 105%, the “Ae0–24 h (excreted in urine as unchanged for 24 h)” value (in vivo; LC rats, 10 mg/kg i.v.) was 40.2 ± 18.9 % of dose and the CLNR (in vivo; LC rats, 10 mg/kg i.v.) was 6.35 ± 1.27 mL/min/kg. For the same compound, the “GI24 h (remained in the gastrointestinal tract at 24 h)” value (in vivo; LC rats, 10 mg/kg i.v.) was 2.07 ± 2.12 % of dose, the “Ae0–24 h” value (in vivo; LC rats, 20 mg/kg oral) was 35.8 ± 16.9 % of dose and the GI24 h (in vivo; LC rats, 20 mg/kg oral) was 1.73 ± 2.04 % of dose. The “Greater Ae0–24 h” value (in vivo; [8]) was 117%, the “Increase in terminal half-life” value (in vivo; [8]) was 64.4% and the “Slower CL” value (in vivo; [8]) was 42.7%. For the same compound, the “Slower CLNR” value (in vivo; [8]) was 54.1%, the “Increase in AUC” value (in vivo; [9]) was 223% and the “Increase in Ae0–24 h” value (in vivo; [9]) was 204%. For the same compound, the “Increase in Cmax” value (in vivo; [9]) was 72.2%, the “Increase in F” value (in vivo; [9]) was 92.9% and the “Decrease in AUC” value (in vivo; [10]) was 35.1%. For the same compound, the “Decrease in terminal half-life” value (in vivo; [10]) was 48.5%, the “Decrease in AUC” value (in vivo; [11]) was 38.9% and the “Decrease in Cmax” value (in vivo; [11]) was 33.2%. For the same compound, the “Ae0–24 h (excreted in urine as unchanged for 24 h)” value (in vivo; LC-ISN rats, 10 mg/kg i.v.) was 30.1 ± 12.3 % of dose, the CLNR (in vivo; LC-ISN rats, 10 mg/kg i.v.) was 9.68 ± 2.40 mL/min/kg and the “GI24 h (remained in the gastrointestinal tract at 24 h)” value (in vivo; LC-ISN rats, 10 mg/kg i.v.) was 0.166 ± 0.135 % of dose. The “Ae0–24 h” value (in vivo; LC-ISN rats, 20 mg/kg oral) was 35.9 ± 16.8 % of dose, the GI24 h (in vivo; LC-ISN rats, 20 mg/kg oral) was 0.340 ± 0.288 % of dose and the AUC (in vivo; [12]) was 7330 ng·h/mL. The AUC (in vivo; [13]) was 18900 ng·h/mL, the AUC (in vivo; [14]) was 12300 ng·h/mL and the clearance (in vivo; [15]) was 24.1 ± 6.27 mL/min/kg. For the same compound, the clearance (in vivo; [16]) was 11 ± 2.06 mL/min/kg, the clearance (in vivo; [17]) was 13.8 ± 1.73 mL/min/kg and the CL renal (in vivo; [15]) was 3.73 ± 1.09 mL/min/kg. For the same compound, the CL renal (in vivo; [16]) was 4.65 ± 2.74 mL/min/kg, the CL renal (in vivo; [17]) was 4.1 ± 1.64 mL/min/kg and the half-life (in vivo; [12]) was 35.4 ± 19.2 min. The half-life (in vivo; [13]) was 113 ± 43.7 min, the half-life (in vivo; [14]) was 58.2 ± 16.8 min and the Vd (in vivo; [15]) was 0.429 ± 0.253 L/kg. The Vd (in vivo; [16]) was 0.798 ± 0.177 L/kg, the Vd (in vivo; [17]) was 0.8 ± 0.326 L/kg and the AUC (in vivo; [18]) was 6400 ng·h/mL. The AUC (in vivo; [19]) was 33800 ng·h/mL, the AUC (in vivo; [20]) was 20700 ng·h/mL and the CL renal (in vivo; [18]) was 6.98 ± 2.99 mL/min/kg. For the same compound, the CL renal (in vivo; [19]) was 3.62 ± 1.78 mL/min/kg, the CL renal (in vivo; [20]) was 5.71 ± 2.47 mL/min/kg and the Cmax (in vivo; [18]) was 3530 ± 1460 ng/mL. It also gave a Cmax (in vivo; [19]) of 9100 ± 1260 ng/mL, a Cmax (in vivo; [20]) of 6080 ± 1990 ng/mL and a bioavailability (in vivo; po, 20 mg/kg, CON rats) of 43.6%. For the same compound, the bioavailability (in vivo; po, 20 mg/kg, LC rats) was 89.5%, the bioavailability (in vivo; po, 20 mg/kg, LC-ISN rats) was 84.1% and the Tmax (in vivo; [18]) was 50 min. For the same compound, the Tmax (in vivo; [19]) was 55.7 min, the Tmax (in vivo; [20]) was 85.7 min and the GI24 h (in vivo; the three groups of rats, 20 mg/kg oral) was “less than 1.73 % of the oral dose”. For the same compound, the Stability [2] was “stable”, the Hepatic first-pass effect [3] was 42.0% and the Biliary excretion [4] was 0.703 % of the unchanged drug dose. For the same compound, the P-gp substrate (P-gp) was “substrate of P-gp”, the “Decrease in plasma protein binding” value (in vitro; LC rats vs CON rats) was 28.3% and the “Decrease in plasma protein binding” value (in vitro; LC-ISN rats vs CON rats) was 21.5%. The fraction unbound at 24 h, 10 μg/mL (in vitro; CON rat plasma, 10 μg/mL tofacitinib, 37 °C, 24 h) was 0.749, the fraction unbound at 24 h, 10 μg/mL (in vitro; LC rat plasma, 10 μg/mL tofacitinib, 37 °C, 24 h) was 0.82 and the fraction unbound at 24 h, 10 μg/mL (in vitro; LC-ISN rat plasma, 10 μg/mL tofacitinib, 37 °C, 24 h) was 0.803. For the same compound, the fraction unbound at 24 h, 10 μg/mL (in vitro; range over CON, LC and LC-ISN rats) was 0.749 to 0.82, the “Km for disappearance of tofacitinib” value ([5]; hepatic microsomes, CON, LC and LC-ISN rats) was “comparable among the three groups of rats” and the “Decrease in hepatic CLint” value [5, 21] was 64.9%. The “Slower Vmax for disappearance of tofacitinib” value [5, 21] was 63.4%, the “Hepatic CLint recovered to % of CON rats” value ([5]; hepatic microsomes, LC-ISN rats vs CON rats) was 92.2% and the “Intestinal CLint” value ([5]; intestinal microsomes, CON, LC and LC-ISN rats) was “not significantly different among the three groups of rats”.
